Results from patent US20260242738A1, “ALK5 INHIBITORS FOR EFFICIENT DERIVATION OF MESENCHYMAL STEM CELLS FROM EMBRYONIC STEM CELLS” (SCRIPPS HEALTH, priority 2022, published 2026).

Tests used:
[1] = tested on: ESC cell lines (H9, AND-1, AND-2, and SHEF-1); conditions: monolayer cultures on Matrigel coated flasks, before sorting; cited from earlier work
[2] = tested on: HUES9 ESC; conditions: 10 μM SB431542, fibronectin, monolayer with 10% FBS; cited from earlier work
[3] = tested on: H9 ESC; experiment: Gene expression profiling of ES-MSC relative to undifferentiated ESC; assay type: cell-based, human
Method: An overview of the differentiation process is provided in FIG. 1, panel K. To create cell clusters or embryoid bodies of uniform size, ESCs were removed from CellStart culture using Accutase® for 2-5 minutes until single cells were observed. Cells (2.5-3×10^5 cells per ml) were suspended in StemPro human ESC serum free medium (ThermoFisher) with 10 μM Y-27632 (EMD Chemicals, Gibbstown, NJ) and 40 ng/ml FGF (Life Technologies, Carlsbad, CA) in a 125 ml spinner culture flask (Corning Inc., Corning, NY) on a magnetic stirrer (CimarecTM Biosystem Slow-Speed Stirrer, ThermoFisher) at 70 rpm for 24 hours at 37° C. with 5% CO2 to form small cell clusters (minimum total cells was 7.5×10^6 in 30 ml). After 24 hours, the cell clusters were suspended at 2.5-3×10^5 cells per ml in ultra-low adherent 6 well plates (Corning) in […] free medium (ThermoFisher) supplemented with 2 mM L-glutamine (ThermoFisher Scientific), 50 μg/ml Ascorbic acid (Stemcell Technologies, Vancouver, Canada) and 1.8 μl/ml ITS-G (100× Insulin-Transferrin-Selenium; ThermoFisher); termed as “complete SP-34 medium”. […] Total RNA was extracted from using the RNeasy kit as recommended by the manufacturer (QIAGEN, Valencia, CA). The High-Capacity cDNA Reverse Transcription Kit (Applied Biosystems, Foster City, California) kit was used to make cDNA and the following verified primer/probe assays were purchased from Applied Biosystems. Expression of the following genes was quantified POU5F1/OCT4 and SOX2 (for pluripotency); FOXA1 and SOX17 (for endoderm); NES and PAX6 (for ectoderm); NKX2-5, MSX1, NCAM1, and SOX9 (for mesoderm); ITGB1/CD29 (for MSC phenotype); and COL1A1, COL2A1, COL10A1, COMP, ACAN, and SOX9 and RUNX2 (for chondrogenesis). Gene expression was normalized to GAPDH as previously reported. Undifferentiated ESC served as a baseline for relative changes in gene expression in differentiated ES-MSC cells. Differentiated ES-MSC cells in monolayer served as baseline for changes in gene expression in pellets or hydrogel constructs.

[4] = tested on: H9 ESC; experiment: Flow cytometry of MSC surface markers after ESC to MSC differentiation with ALK-5 inhibitor; assay type: cell-based, human; conditions: H9 ES-MSC
Method: An overview of the differentiation process is provided in FIG. 1, panel K. To create cell clusters or embryoid bodies of uniform size, ESCs were removed from CellStart culture using Accutase® for 2-5 minutes until single cells were observed. […] After 24 hours, the cell clusters were suspended at 2.5-3×10^5 cells per ml in ultra-low adherent 6 well plates (Corning) in StemPro-34 serum free medium (ThermoFisher) supplemented with 2 mM L-glutamine (ThermoFisher Scientific), 50 μg/ml Ascorbic acid (Stemcell Technologies, Vancouver, Canada) and 1.8 μl/ml ITS-G (100× Insulin-Transferrin-Selenium; ThermoFisher); termed as “complete SP-34 medium”.
The medium was changed every 2 days by removing cell clusters into 15 ml sterile tubes and permitted to gravity settle for 10 minutes at room temperature. Most of the media was removed using a pipette to leave approximately 300-500 μl of medium. Freshly made medium (with the appropriate ALK5 inhibitor or DMSO) was replaced at the same volumes and well number into new ultra-low adherent plates.
After treatment with the appropriate ALK5 inhibitor, the cell clusters were removed by gravity settling and suspended in complete SP-34 medium supplemented with bFGF 20 ng/ml (without any ALK-5 inhibitor or DMSO) and transferred onto fibronectin (FN) coated (10 μg/ml; Fibronectin from human plasma, Sigma-Aldrich, St. Louis, MO) T75 cm^2 flasks (passage zero (P0)). The emerging cells and remaining cell clusters were exposed to Accutase® for 5-10 minutes, gently triturated and counted. The cells were seeded at […] in T75 FN coated flask (P1) and medium changed every 3-4 days until 80-90% confluence. At this point, the cells were detached using Accutase® for continued culture, screened for surface marker phenotype characterization (flow cytometry), placed into 3D cultures to assess chondrogenic differentiation capacity, or preserved in liquid nitrogen.
Cells were detached using Accutase®, washed and suspended in FACS buffer at a concentration of 0.2×10^6 cells per 100 μl. A panel of CD molecules were used, each with the following fluorochromes: CD34-FITC, CD45-BV510, CD73-APC (BioLegend, San Diego, California) CD90-PE-Cy7, and CD105-BV650 (BD Biosciences, Franklin Lakes, New Jersey). Matching isotype control IgGs with the same fluorochrome conjugates were used for background gating. […] Data was acquired with the Novocyte flow cytometer (ACEA Biosciences Inc. San Diego, CA) and analyzed using FlowJo software (version 10, FlowJo, LLC, Ashland, OR) to determine percentage positive signal for each molecule relative to isotype background non-specific signal controls.

[5] = tested on: ES-MSC; experiment: ES-MSC seeded scaffolds implanted subcutaneously into a nude mouse; assay type: in vivo; conditions: 1 week in vitro, then subcutaneous in nude mouse for 5 weeks
Description: ES-MSC derived from treatment with ALK-5 inhibitor SB525334, as described in Example 1, produced meniscus cartilage-like tissues when seeded upon blow spun collagen scaffolds in in vitro and in vivo.

[6] = ES-MSC relative to undifferentiated ESC

| Compound | CD73+CD90+CD34− cell population [1] | enrichment for MSC markers CD44, CD73, CD146, and CD166 [2] | expression of SOX9 and COL2A1 (chondroprogenitor phenotype) [3, 6] | expression of mesoderm specific markers (NCAM1, MSX1, NKX2-5) and MSC marker (ITGB1) [3, 6] | expression of pluripotent markers POU5F1 (OCT4) and SOX2 ([3]; H9 ES-MSC relative to undifferentiated ESC) | CD73 positive cells ([4]; SB431542 10 μM 10 days, N=5) | CD90 positive cells ([4]; SB431542 10 μM 10 days, N=5) | CD105 positive cells ([4]; SB431542 10 μM 10 days, N=5) | triple positive for CD73, CD90 and CD105 ([4]; co-expression analysis) | meniscus cartilage-like tissue, Safranin O staining [5] |
| --- | --- | --- | --- | --- | --- | --- | --- | --- | --- | --- |
| NC(=O)c1ccc(-c2nc(-c3ccc4c(c3)OCO4)c(-c3ccccn3)[nH]2)cc1 [SB431542] | 42% | highly enriched | Increased expression | significantly upregulated | significantly down regulated | 99±1% | 99±1% | 94±4% | 92±9% |  |
| Cc1cccc(-c2[nH]c(C(C)(C)C)nc2-c2ccc3nccnc3c2)n1 [SB525334] |  |  |  |  |  |  |  |  |  | strong Safranin O staining profile |
